Results from ChEMBL document CHEMBL1149683, “Novel TOPP descriptors in 3D-QSAR analysis of apoptosis inducing 4-aryl-4H-chromenes: comparison versus other 2D- and 3D-descriptors” (2007).

The molecules below were run on HL-60 (assay: Induction of apoptosis in human HL60 […]).
Assay type: functional

In order of rising “Log (1/C)” value:
1. COc1ccc(CC2C(C#N)=C(N)Oc3cc(N(C)C)ccc32)c(Br)c1OC (stereo not drawn)  5.14
2. COc1cc(C2C(C#N)=C(N)Oc3cc(O)ccc32)cc2c1OCO2 (stereo not drawn)  5.24
3. COc1cc(C2C(C#N)=C(N)Oc3c2ccc(N)c3N)cc(I)c1OC (stereo not drawn)  5.31
4. COc1ccc(C2C(C#N)=C(N)Oc3cc(N(C)C)ccc32)c(OC)c1OC (stereo not drawn)  5.5
5. CN(C)c1ccc2c(c1)OC(N)=C(C#N)C2c1cnc2ccccc2c1 (stereo not drawn)  5.74
6. COc1cc(OC)c(C2C(C#N)=C(N)Oc3cc(N(C)C)ccc32)cc1OC (stereo not drawn)  5.75
7. COc1cc(C2C(C#N)=C(N)Oc3c2ccc(O)c3O)cc(Br)c1OC (stereo not drawn)  5.77
8. COc1ccc(C2C(C#N)=C(N)Oc3cc(N(C)C)ccc32)cc1 (stereo not drawn)  5.8
9. COc1cc(C2C(C#N)=C(N)Oc3cc(N)ccc32)cc2c1OCO2 (stereo not drawn)  5.92
10. CCNc1cc2c(cc1C)C(c1cc(OC)c3c(c1)OCO3)C(C#N)=C(N)O2 (stereo not drawn)  5.96
11. COc1cccc(C2C(C#N)=C(N)Oc3cc(N(C)C)ccc32)c1OC (stereo not drawn)  5.99
12. CCN(CC)c1ccc2c(c1)OC(N)=C(C#N)C2c1cc(OC)c2c(c1)OCO2 (stereo not drawn)  6.32
13. CN(C)c1ccc2c(c1)OC(N)=C(C#N)C2c1ccccn1 (stereo not drawn)  6.33
14. CN(C)c1ccc2c(c1)OC(N)=C(C#N)C2c1cccc(OC(F)(F)F)c1 (stereo not drawn)  6.35
15. CN(C)c1ccc2c(c1)OC(N)=C(C#N)C2CCc1ccccc1 (stereo not drawn)  6.37
16. N#CC1=C(N)Oc2c(ccc(N)c2N)C1c1cccc(C#N)c1 (stereo not drawn)  6.41
17. N#CC1=C(N)Oc2c(ccc(N)c2N)C1c1cccc([N+](=O)[O-])c1 (stereo not drawn)  6.41
18. CN(C)c1ccc2c(c1)OC(N)=C(C#N)C2c1ccncc1 (stereo not drawn)  6.42
19. COc1ccc2c(c1)OC(N)=C(C#N)C2c1ccccc1 (stereo not drawn)  6.44
20. CCNc1ccc2c(c1)OC(N)=C(C#N)C2c1cc(OC)c2c(c1)OCO2 (stereo not drawn)  6.48
21. COc1cc(C2C(C#N)=C(N)Oc3c2ccc(N)c3C)cc2c1OCO2 (stereo not drawn)  6.51
22. COc1ccccc1C1C(C#N)=C(N)Oc2cc(N(C)C)ccc21 (stereo not drawn)  6.55
23. CN(C)c1ccc2c(c1)OC(N)=C(C#N)C2c1cccc(O)c1 (stereo not drawn)  6.57
24. COc1ccc(C2C(C#N)=C(N)Oc3cc(N(C)C)ccc32)cc1OC (stereo not drawn)  6.6
25. Cc1cccc(C2C(C#N)=C(N)Oc3cc(N(C)C)ccc32)n1 (stereo not drawn)  6.61
26. CN(C)c1ccc2c(c1)OC(N)=C(C#N)C2c1cc(Br)c2c(c1)OCO2 (stereo not drawn)  6.61
27. COc1cc(C2C(C#N)=C(N)Oc3cc4c(cc32)OCO4)cc2c1OCO2 (stereo not drawn)  6.68
28. CN(C)c1ccc2c(c1)OC(N)=C(C#N)C2c1cccs1 (stereo not drawn)  6.7
29. COc1ccc2c(c1)OC(N)=C(C#N)C2c1cccnc1 (stereo not drawn)  6.77
30. COc1ccc2c(c1)OC(N)=C(C#N)C2c1cc(OC)c2c(c1)OCO2 (stereo not drawn)  6.8
31. COc1cc(C2C(C#N)=C(N)Oc3cc(Cl)ccc32)cc(Br)c1OC (stereo not drawn)  6.8
32. N#CC1=C(N)Oc2c(ccc(N)c2N)C1c1cccc(Br)c1 (stereo not drawn)  6.82
33. CN(C)c1ccc2c(c1)OC(N)=C(C#N)C2c1cc(Br)cs1 (stereo not drawn)  6.82
34. COc1cc(C2C(C#N)=C(N)Oc3cc(Br)ccc32)cc(Br)c1OC (stereo not drawn)  6.85
35. Cc1cccc(C2C(C#N)=C(N)Oc3cc(N(C)C)ccc32)c1 (stereo not drawn)  6.87
36. COc1cc(C2C(C#N)=C(N)Oc3cc(O)ccc32)cc(Br)c1OC (stereo not drawn)  6.89
37. CCNc1ccc2c(c1)OC(N)=C(C#N)C2c1cccc(Cl)c1 (stereo not drawn)  6.92
38. CN(C)c1ccc2c(c1)OC(N)=C(C#N)C2c1cccc(Cl)c1 (stereo not drawn)  6.95
39. CCNc1ccc2c(c1)OC(N)=C(C#N)C2c1cccc([N+](=O)[O-])c1 (stereo not drawn)  6.96
40. CCNc1ccc2c(c1)OC(N)=C(C#N)C2c1cccc(OC)c1 (stereo not drawn)  6.96
41. COc1cc(OC)cc(C2C(C#N)=C(N)Oc3c2ccc(N)c3N)c1 (stereo not drawn)  7.04
42. COc1ccc2c(c1)OC(N)=C(C#N)C2c1cccc([N+](=O)[O-])c1 (stereo not drawn)  7.05
43. CN(C)c1ccc2c(c1)OC(N)=C(C#N)C2c1cccc(F)c1 (stereo not drawn)  7.09
44. COc1ccc2c(c1)OC(N)=C(C#N)C2c1cccc(Cl)c1 (stereo not drawn)  7.1
45. CN(C)c1ccc2c(c1)OC(N)=C(C#N)C2c1cc(Cl)cc(Cl)c1 (stereo not drawn)  7.12
46. COc1cc(C2C(C#N)=C(N)Oc3cc(N(C)C)ccc32)cc2c1OCO2 (stereo not drawn)  7.14
47. CN(C)c1ccc2c(c1)OC(N)=C(C#N)C2c1cccnc1 (stereo not drawn)  7.17
48. CCOc1ccc2c(c1)OC(N)=C(C#N)C2c1cc(Br)c(OC)c(OC)c1 (stereo not drawn)  7.19
49. COc1cccc(C2C(C#N)=C(N)Oc3cc(N(C)C)ccc32)c1 (stereo not drawn)  7.19
50. CN(C)c1ccc2c(c1)OC(N)=C(C#N)C2c1cccc(Br)c1 (stereo not drawn)  7.19
51. CN(C)c1ccc2c(c1)OC(N)=C(C#N)C2c1cccc(C#N)c1 (stereo not drawn)  7.2
52. COc1cc(C2C(C#N)=C(N)Oc3c2ccc(O)c3N)cc(Br)c1OC (stereo not drawn)  7.21
53. CCNc1ccc2c(c1)OC(N)=C(C#N)C2c1cc(OC)cc(OC)c1 (stereo not drawn)  7.26
54. COc1cccc(C2C(C#N)=C(N)Oc3cc(OC)ccc32)c1 (stereo not drawn)  7.28
55. COc1ccc2c(c1)OC(N)=C(C#N)C2c1cccc(Br)c1 (stereo not drawn)  7.28
56. CCNc1ccc2c(c1)OC(N)=C(C#N)C2c1cc(OC)c(OC)c(OC)c1 (stereo not drawn)  7.31
57. COc1cncc(C2C(C#N)=C(N)Oc3cc(OC)ccc32)c1 (stereo not drawn)  7.33
58. COc1cc(C2C(C#N)=C(N)Oc3c2ccc(C)c3C)cc(Br)c1OC (stereo not drawn)  7.38
59. COc1cc(C2C(C#N)=C(N)Oc3cc(N(C)C)ccc32)cc(Br)c1O (stereo not drawn)  7.39
60. COc1cc(C2C(C#N)=C(N)Oc3c2ccc(N)c3N)cc(Br)c1OC (stereo not drawn)  7.47
61. CN(C)c1ccc2c(c1)OC(N)=C(C#N)C2c1cncc(Br)c1 (stereo not drawn)  7.48
62. COc1cc(C2C(C#N)=C(N)Oc3cc(N)ccc32)cc(Br)c1OC (stereo not drawn)  7.48
63. COc1cc(Br)cc(C2C(C#N)=C(N)Oc3cc(N(C)C)ccc32)c1 (stereo not drawn)  7.51
64. COc1ccc2c(c1)OC(N)=C(C#N)C2c1cc(OC)c(OC)c(OC)c1 (stereo not drawn)  7.59
65. COc1cc(C2C(C#N)=C(N)Oc3c2ccc(N)c3C)cc(Br)c1OC (stereo not drawn)  7.59
66. COc1cc(C2C(C#N)=C(N)Oc3c2ccc(N)c3N)cc(Cl)c1OC (stereo not drawn)  7.62
67. COc1cc(C2C(C#N)=C(N)Oc3c2ccc(N)c3N)cc(Br)c1O (stereo not drawn)  7.64
68. COc1cc(C2C(C#N)=C(N)Oc3cc(N(C)C)ccc32)cc(Cl)c1OC (stereo not drawn)  7.74
69. COc1cc(C2C(C#N)=C(N)Oc3cc(N(C)C)ccc32)cc(I)c1OC (stereo not drawn)  7.74
70. COc1ccc2c(c1)OC(N)=C(C#N)C2c1cc(Br)c(OC)c(OC)c1 (stereo not drawn)  7.77
71. COc1cc(OC)cc(C2C(C#N)=C(N)Oc3cc(OC)ccc32)c1 (stereo not drawn)  7.82
72. CCNc1ccc2c(c1)OC(N)=C(C#N)C2c1cc(Br)c(OC)c(OC)c1 (stereo not drawn)  7.85
73. Cc1cncc(C2C(C#N)=C(N)Oc3cc(N(C)C)ccc32)c1 (stereo not drawn)  7.96
